The conditions of data set [1]: humans; cited from earlier work.
For data set [2] the following is noted: may cause adverse effects in some individuals; cited from earlier work.
For data set [3], the system named is patient with chronic obstructive pulmonary disease (COPD). Description: Administration of iodine on activated charcoal to a COPD patient, spirometric evaluation and observed bronchorelaxation. The settings on record: same COPD patient; 50 mg elemental iodine in a gelatin capsule for a few days. Type of data set: in vivo, human. An excerpt: A person, had been smoking cigarettes daily for many years, but quit about 10 years ago. The decision to quit smoking was caused by increasing problems from the airways, with repeated episodes of pneumonia and airway obstruction. These symptoms were usually treated with antibiotics, steroids and bronchodilators.
After that, the airway symptoms increased considerably, with month-long episodes of cough and exercise-induced dyspnea.
In the following months the situation continued to worsen with loss of appetite, reduction of weight and severe dyspnea during rest, in spite of maximum treatment with anti-cholinergics, steroids and bronchodilators. The patient now felt desperately ill, and questioned how long they would be able to survive.
The severity of their condition prompted the patient to look for alternative treatments. […] […] […] A renewed spirometric evaluation a few months later confirmed the subjective improvements (FEV1=2.79 L, corresponding to 97.1% of their reference value and PEF=427 L/min, corresponding to 92.5% of their reference value).
The patient has continued to regularly take the combination for more than a year and still experiences the full benefit of it. A temporary discontinuation of the intake for a few days led to the reappearance of many of the symptoms. However, they quickly disappeared upon the resumption of the intake of iodinated activated charcoal. […]

With `[Br-].[Na+]` [Sodium bromide, sodium bromide], in data set [1], the no-effect level is given as 4 mg/kg body weight.

As to `II` [elemental iodine, iodine], the “iodine intake probably safe for the majority of the population” value in data set [2] was “less than or equal to 1,000 mg/day”. In addition, the bronchorelaxing effect result in data set [3] was “no distinct bronchorelaxing effect was observed”.

The values are drawn from patent US20100266573A1, “METHOD AND MEANS FOR OBTAINING BRONCHORELAXATION” (Pharmalundensis AB, priority 2007, published 2010).
